How the values were obtained:
[1] = Cellular toxicity assay in PBM cells; assay type: cell-based; settings: human
Procedure: (§1) The toxicity of the compounds was assessed in Vero, human PBM, CEM (human lymphoblastoid), MT-2, and HepG2 cells, as described previously (see Schinazi R. F., Sommadossi J.-P., Saalmann V., Cannon D. L., Xie M.-Y., Hart G. C., Smith G. A. & Hahn E. F. Antimicrob. Agents Chemother. 1990, 34, 1061-67). Cycloheximide was included as positive cytotoxic control, and untreated cells exposed to solvent were included as negative controls. The cytotoxicity IC50 was obtained from the concentration-response curve using the median effective method described previously (see Chou T.-C. & Talalay P. Adv. Enzyme Regul. 1984, 22, 27-55; Belen'kii M. S. & Schinazi R. F. Antiviral Res. 1994, 25, 1-11).

[2] = Cellular toxicity assay in CEM cells; assay type: cell-based; settings: human
Procedure: as §1

[3] = Cellular toxicity assay in macrophages; assay type: cell-based, human; settings: human
[4] = Cellular toxicity assay in Vero cells; assay type: cell-based; settings: African green monkey
Procedure: as §1

[5] = Cellular toxicity assay in Huh7 cells; assay type: cell-based; settings: human
HIV [6] = assay: HIV assay in macrophages; assay type: cell-based; settings: for EC90 / EC50: Human immunodeficiency virus 1, Macrophage, Table 5 (Example 8); for Antiviral Potency Macrophages - EC50/90: EC50 / Antiviral Potency Macrophages - EC50/90: EC90: Table 5A
Procedure: (§2) PBM cells or macrophages were incubated with various concentrations of antiviral agents for 6 days PBM cells) or […] (macrophages), followed by harvest of supernatants and quantification of extracellular HIV using the RT assay or p24 assays as previously described (Gavegnano and Schinazi et al, 2012, AAC). AZT (positive control), no drug controls, or virus alone were also performed in each assay. Assays were performed in 8 independent experiments. The Chou and Tallalay method was used to calculate the effective inhibitory concentration 50/90 as previously described (Gavegnano and Schinazi et al, 2012, AAC).

HIV [7] = assay: HIV assay in PBM cells; assay type: cell-based
Procedure: as §2

[8] = Bone marrow cytotoxicity, GM lineage (CFU-GM); assay type: cell-based, human; settings: human, Table 8A, first value of the cell, read-out: Cytotoxicity: MTT IC50, Bone Marrow (GM Lineage)
Procedure: (§3) Primary human bone marrow mononuclear cells can be obtained commercially from Cambrex Bioscience (Walkersville, MD). CFU-GM assays is carried out using a bilayer soft agar in the presence of 50 units/mL human recombinant granulocyte/macrophage colony-stimulating factor, while BFU-E assays used a […] matrix containing 1 unit/mL erythropoietin (see Sommadossi J P, Carlisle R. Toxicity of 3′-azido-3′-deoxythymidine and 9-(1,3-dihydroxy-2-propoxymethyl) guanine for normal human hepatopoietic progenitor cells in vitro. Antimicrob. Agents Chemother. 1987; 31: 452-454; Sommadossi, JP, Schinazi, RF, Chu, C K, and Xie, M Y. Comparison of cytotoxicity of the (−) and (+) enantiomer of 2′,3′-dideoxy-3′-thiacytidine in normal human bone marrow progenitor cells. Biochem. Pharmacol. 1992; 44:1921-1925). Each experiment can be performed in duplicate in cells from three different donors. AZT is used as a positive control. […] The 50% inhibitory concentration (IC50) can be obtained by least-squares linear regression analysis of the logarithm of drug concentration versus BFU-E survival fractions. Statistical analysis can be performed with Student's t test for independent non-paired samples.

[9] = Bone marrow cytotoxicity, erythroid lineage (BFU-E); assay type: cell-based, human; settings: human; Table 8A; first value of the cell; read-out: Cytotoxicity: MTT IC50, Bone Marrow (Erythroid Lineage)
Procedure: as §3

Bone Marrow (GM Lineage) = assay: Bone marrow cytotoxicity, GM lineage (CFU-GM); assay type: cell-based, human; settings: Table 8A; slash not defined, head says IC50
Procedure: as §3

Macrophages = assay: Cellular toxicity assay in macrophages; assay type: cell-based, human; settings: Table 8A; slash not defined, head says IC50
[10] = test system: Bone Marrow (Erythroid Lineage); assay: Bone marrow cytotoxicity, erythroid lineage (BFU-E); assay type: cell-based, human; settings: Table 8A; slash not defined, head says IC50
Procedure: as §3

[11] = Table 8A, MTT, read-out: Cytotoxicity: MTT IC50, PBM
[12] = Table 8A, MTT, read-out: Cytotoxicity: MTT IC50, CEM
[13] = Table 8A, first value of the cell, read-out: Cytotoxicity: MTT IC50, Macrophages
[14] = Table 8A, MTT, read-out: Cytotoxicity: MTT IC50, Vero
[15] = Table 8A, MTT, read-out: Cytotoxicity: MTT IC50, Huh7
[16] = Human immunodeficiency virus 1, PBMC, 144 h, Table 5 (Example 8), HIV in PBM cells, 6 days, read-out: PBM Cells EC50
[17] = PBM cells, Table 8, read-out: Cytotoxicity IC50, PBM
[18] = CEM lymphoblastoid cells, Table 8, read-out: Cytotoxicity IC50, CEM
[19] = macrophages, Table 8, read-out: Cytotoxicity IC50, Macrophages
[20] = Vero cells, Table 8, read-out: Cytotoxicity IC50, Vero
[21] = primary bone marrow mononuclear cells, GM lineage (CFU-GM)
[22] = PBM cells, Table 8A, MTT, read-out: Cytotoxicity: MTT IC50, PBM
[23] = CEM lymphoblastoid cells, Table 8A, MTT, read-out: Cytotoxicity: MTT IC50, CEM
[24] = macrophages, Table 8A, first value of the cell, read-out: Cytotoxicity: MTT IC50, Macrophages
[25] = Vero cells, Table 8A, MTT, read-out: Cytotoxicity: MTT IC50, Vero
[26] = Huh7 cells, Table 8A, MTT, read-out: Cytotoxicity: MTT IC50, Huh7
[27] = Human immunodeficiency virus 1, PBMC, Table 5A, HIV in PBM cells, read-out: Antiviral Potency PBM Cells - EC50/90: EC50
[28] = Table 5A, HIV in PBM cells, read-out: Antiviral Potency PBM Cells - EC50/90: EC50

SMILES: C[C@@H]1C[C@@H]([C@H](O)CC2CC(=O)NC(=O)C2)C(=O)[C@@H](C)C1
- IC50 [1, 11]: 2.5 µM
- IC50 [2, 12]: 0.06 µM
- IC50 [3, 13]: 6.9 ± 0.9 µM
- IC50 [4, 14]: 0.7 µM
- IC50 [5, 15]: 0.9 µM

SMILES: C#C[C@]1(CO)O[C@@H](n2cnc3c(N)nc(F)nc32)CC1O (some centres unmarked)
- EC90 (HIV [6]): 0.01 nM

SMILES: C#C[C@]1(CO)O[C@@H](n2cnc3c(N)nc(F)nc32)C(O)C1O (some centres unmarked)
- EC50 (HIV [6]): 0.001 µM
- EC90 (HIV [6]): 20 nM
- EC90 (HIV [7]; Human immunodeficiency virus 1, PBMC, 144 h, Table 5 (Example 8), HIV in PBM cells, 6 days): 19.1 µM
- EC50 (HIV [7]; [16]): 3.2 µM

SMILES: C#C[C@]1(CO)O[C@@H](n2cnc3c(N)nc(F)nc32)C[C@@H]1O [drawing 60]
- IC50 [1, 17]: 1.1 µM
- IC50 [2, 18]: 6.8 µM
- IC50 [3, 19]: 2.4 µM
- IC50 [4, 20]: ≥ 100 µM

SMILES: C#C[C@]1(CO)O[C@@H](n2cnc3c(N)nc(F)nc32)[C@H](O)[C@@H]1O [drawing 61]
- IC50 [1, 17]: 3.2 µM
- IC50 [2, 18]: 52 µM
- IC50 [3, 19]: 0.7 µM
- IC50 [4, 20]: > 100 µM

SMILES: CN(C)c1cccc(-c2c3c(=O)n(-c4ccccc4Cl)[nH]c3cc(=O)n2C)c1 [drawing 62]
- IC50 [1, 17]: > 100 µM
- IC50 [3, 19]: > 10 µM

SMILES: CC(=O)c1ccc2c(c1)Nc1ccccc1S2 [drawing 63]
- IC50 [1, 17]: > 100 µM
- IC50 [3, 19]: > 10 µM

SMILES: COc1ccc(NC(=O)Nc2ccc(N)cc2)cc1 [drawing 64]
- IC50 [1, 17]: > 100 µM
- IC50 [3, 19]: > 10 µM

SMILES: C#C[C@]1(CO)O[C@@H](n2ccc(=O)[nH]c2=O)[C@H](O)[C@@H]1O [drawing 65]
- IC50 [8, 21]: > 100 µM
- IC50 [1, 22]: > 100 µM
- IC50 [2, 23]: > 100 µM
- IC50 [3, 24]: > 100 µM
- IC50 [9]: > 100 µM
- IC50 [4, 25]: > 100 µM
- IC50 [5, 26]: > 100 µM

SMILES: C#C[C@]1(COP(=O)(N[C@@H](C)C(=O)OC(C)C)Oc2ccccc2)O[C@@H](n2ccc(=O)[nH]c2=O)[C@H](O)[C@@H]1O (some centres unmarked) [drawing 66]
- IC50 [8]: > 100 µM
- IC50 [1, 11]: > 100 µM
- IC50 [2, 12]: > 100 µM
- IC50 [3, 13]: > 100 µM
- IC50 [9]: > 100 µM
- IC50 [4, 14]: > 100 µM
- IC50 [5, 15]: > 100 µM

SMILES: C#C[C@]1(CO)O[C@@H](n2cnc3c(N)nc(F)nc32)C[C@@H]1O [drawing 67]
- Bone Marrow (GM Lineage), second value after the slash (Bone Marrow (GM Lineage)): 22.4 µM
- IC50 [8, 21]: 1.9 µM
- IC50 [1, 22]: 2.9 µM
- IC50 [2, 23]: 1.7 µM
- Macrophages, second value after the slash (Macrophages): 9.2 µM
- IC50 [3, 24]: 21 µM
- IC50 [9]: 2.4 µM
- Bone Marrow (Erythroid Lineage), second value after the slash [10]: 8.6 µM
- IC50 [4, 25]: 3.2 µM

SMILES: C#C[C@]1(CO)O[C@@H](n2cnc3c(N)nc(F)nc32)[C@H](O)[C@@H]1O [drawing 68]
- Bone Marrow (GM Lineage), second value after the slash (Bone Marrow (GM Lineage)): 12.7 µM
- IC50 [8, 21]: 0.4 µM
- IC50 [1, 22]: 2.2 µM
- IC50 [2, 23]: 1.9 µM
- IC50 [3, 24]: 3.2 ± 0.3 µM
- IC50 [9]: 0.7 µM
- Bone Marrow (Erythroid Lineage), second value after the slash [10]: 5.4 µM
- IC50 [4, 25]: 12.9 µM
- IC50 [5, 26]: 11.4 µM

SMILES: O=c1c2cc(F)ccc2sn1-c1ccc2c(c1)OCO2 [drawing 70]
- IC50 ([1]; PBM cells, Table 8B, MTS (head line), read-out: Cytotoxicity: IC50, PBM): 58.3 ± 10.9 µM
- IC50 ([2]; CEM lymphoblastoid cells, Table 8B, MTT (head line), read-out: Cytotoxicity: IC50, CEM): 3.7 µM
- IC50 ([4]; Vero cells, Table 8B, MTT (head line), read-out: Cytotoxicity: IC50, Vero): 20.1 µM
- IC50 ([5]; Huh7 cells, Table 8B, MTT/MTS (head line), read-out: Cytotoxicity: IC50, Huh7): 379 ± 19.2 µM

SMILES: CN(C)c1cccc(-c2c3c(=O)n(-c4ccccc4Cl)[nH]c3cc(=O)n2C)c1 [drawing 73]
- EC50 (HIV [6]): 0.03 µM
- EC90 (HIV [6]): 300 nM
- EC50 (HIV [7]; [16]): > 100 µM

SMILES: CC(=O)c1ccc2c(c1)Nc1ccccc1S2 [drawing 74]
- EC50 (HIV [6]): 0.02 µM
- EC90 (HIV [6]): 200 nM
- EC50 (HIV [7]; [16]): > 100 µM

SMILES: COc1ccc(NC(=O)Nc2ccc(N)cc2)cc1 [drawing 75]
- EC50 (HIV [6]): 0.001 µM
- EC90 (HIV [6]): 100 nM
- EC50 (HIV [7]; [16]): > 100 µM

SMILES: C#C[C@]1(CO)O[C@@H](n2ccc(=O)[nH]c2=O)[C@H](O)[C@@H]1O [drawing 76]
- Antiviral Potency Macrophages - EC50/90: EC50 (HIV [6]): 16600 ± 3200 nM
- Antiviral Potency Macrophages - EC50/90: EC90 (HIV [6]): > 100000 nM
- EC50 (HIV [7]; [27]): > 10 µM

SMILES: C#C[C@]1(COP(=O)(N[C@@H](C)C(=O)OC(C)C)Oc2ccccc2)O[C@@H](n2ccc(=O)[nH]c2=O)[C@H](O)[C@@H]1O (some centres unmarked) [drawing 77]
- Antiviral Potency Macrophages - EC50/90: EC50 (HIV [6]): 0.1 ± 6 nM
- Antiviral Potency Macrophages - EC50/90: EC90 (HIV [6]): 9 ± 7 nM
- EC50 (HIV [7]; Human immunodeficiency virus 1, PBMC, read-out: Antiviral Potency PBM Cells - EC50/90: EC50): > 10 µM

SMILES: C#C[C@]1(CO)O[C@@H](n2cnc3c(N)nc(F)nc32)C[C@@H]1O [drawing 78]
- Antiviral Potency Macrophages - EC50/90: EC50 (HIV [6]): 3e-05 nM
- Antiviral Potency Macrophages - EC50/90: EC90 (HIV [6]): 7e-06 nM
- Antiviral Potency PBM Cells - EC50/90: EC90 (HIV [7]; Table 5A, HIV in PBM cells): 0.0000001 µM
- EC50 (HIV [7]; [28]): 0.000000001 µM

SMILES: C#C[C@]1(CO)O[C@@H](n2cnc3c(N)nc(F)nc32)[C@H](O)[C@@H]1O [drawing 79]
- Antiviral Potency Macrophages - EC50/90: EC50 (HIV [6]): 1 ± 2 nM
- Antiviral Potency Macrophages - EC50/90: EC90 (HIV [6]): 20 ± 10 nM
- EC50 (HIV [7]; [27]): 1.8 µM

SMILES: O=c1c2cc(F)ccc2sn1-c1ccc2c(c1)OCO2 [drawing 81]
- Antiviral Potency Macrophages - EC50/90: EC50 (HIV [6]): 9 nM
- Antiviral Potency Macrophages - EC50/90: EC90 (HIV [6]): 300 nM
- Antiviral Potency PBM Cells - EC50/90: EC90 (HIV [7]; Table 5A, HIV in PBM cells): 12.9 µM
- EC50 (HIV [7]; [28]): 0.7 µM

— patent US12239655B2, “Combined modalities for nucleosides and/or NADPH oxidase (NOX) inhibitors as myeloid-specific antiviral agents” (Emory University, priority 2017, dated 2025)
